Measurements: US12252524B2, “GIP/GLP1 co-agonist compounds” (Eli Lilly and Company, priority 2018, dated 2025)
Numbered stars: 1 amine (or outer) side, 2 acyl side, 3 side chain; on linkers, the order of the positions; unused ones are H or OH. Square brackets hold non-standard residues; d marks the D form. Side chains are listed from the residue outwards. Peptide text beside a SMILES is read from it. * marks the point of attachment. C20 diacid = O=C(O)CCCCCCCCCCCCCCCCCCC(=O)*; αMePhe(2-F) = C[C@](N)(Cc1ccccc1F)C(=O)O; γGlu = O=C(O)[C@H](CCC(=O)[*:2])N[*:1]; αMeL = CC(C)C[C@](C)(N)C(=O)O; AEEA = NCCOCCOCC(=O)O; Aib = CC(C)(N)C(=O)O

Legend:
human Gcg receptor = target: T1, human Gcg receptor (Homo sapiens, UniProt P47871); test: [125I]-Glucagon binding (SPA), human Gcg receptor; details: read-out: hGLcgR Ki, nM (SEM, n)
T1 construct: expressed in transfected cells; crude membranes
Procedure, shortened: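 Scintillation counts are taken after membranes and WGA beads incubate and settle for 12 hours at room temperature. Buffer is 25 mM HEPES, pH 7.4, with CaCl2, MgCl2, bacitracin and Tween-20. Ki values, from four-parameter IC50 fits, are geometric means over independent days.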

human GIP receptor = target: T2, human GIP receptor (Homo sapiens, UniProt P48546); test: [125I]-GIP binding (SPA), human GIP receptor; details: read-out: hGIPR Ki, nM (SEM, n)
T2 construct: expressed in transfected cells; crude membranes
T2 sequence (P48546 22-466): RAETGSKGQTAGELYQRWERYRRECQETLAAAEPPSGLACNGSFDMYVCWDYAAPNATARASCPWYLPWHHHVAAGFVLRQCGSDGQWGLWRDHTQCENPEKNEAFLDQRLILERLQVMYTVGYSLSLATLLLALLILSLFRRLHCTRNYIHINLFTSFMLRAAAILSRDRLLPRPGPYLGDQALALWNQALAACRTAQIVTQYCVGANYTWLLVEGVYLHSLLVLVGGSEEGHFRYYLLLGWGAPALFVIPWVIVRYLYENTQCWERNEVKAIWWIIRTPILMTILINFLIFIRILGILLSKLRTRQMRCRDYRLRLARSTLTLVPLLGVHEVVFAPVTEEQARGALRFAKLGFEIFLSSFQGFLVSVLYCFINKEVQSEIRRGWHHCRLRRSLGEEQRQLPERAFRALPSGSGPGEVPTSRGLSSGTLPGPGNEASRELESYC

[1] = target: human GLP-1 receptor (GLP-1R) (Homo sapiens, UniProt P43220); test: cAMP pharmacological functional assay in presence of casein, hGLP-1R; type: cell-based; details: HEK293 cells expressing hGLP-1R, 0.1% Casein, geometric mean; read-out: hGLP1R cAMP Rel EC50 nM (SEM, n)
[2] = target: T3, gastric inhibitory peptide receptor (GIPR) (Homo sapiens, UniProt P48546); test: cAMP pharmacological functional assay in presence of casein, hGIPR; type: cell-based; details: HEK293 cells expressing hGIPR, 0.1% Casein, geometric mean; read-out: hGIPR cAMP Rel EC50 nM (SEM, n)
T3 sequence (P48546 22-466): T2 sequence (P48546 22-466)

human GLP-1R = human GLP-1R (Homo sapiens, UniProt P43220); test: [125I]-GLP-1 binding (SPA), human GLP-1 receptor; set-up: expressed in transfected cells; crude membranes; details: read-out: hGLP1R Ki, (nM) (SEM, n)
Procedure, shortened: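 Membranes: hypotonic lysis (50 mM Tris HCl, pH 7.5, protease inhibitors), Potter-Elvehjem homogenization, high-speed pellet (35000×g 1 h or 25000×g 30 min, 4° C.). Buffer: 25 mM HEPES pH 7.4, 2.5 mM CaCl2, 1 mM MgCl2. Four-parameter IC50 fit; Ki as geometric mean ± SEM.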

human GLP-1R, sequence (P43220 24-463): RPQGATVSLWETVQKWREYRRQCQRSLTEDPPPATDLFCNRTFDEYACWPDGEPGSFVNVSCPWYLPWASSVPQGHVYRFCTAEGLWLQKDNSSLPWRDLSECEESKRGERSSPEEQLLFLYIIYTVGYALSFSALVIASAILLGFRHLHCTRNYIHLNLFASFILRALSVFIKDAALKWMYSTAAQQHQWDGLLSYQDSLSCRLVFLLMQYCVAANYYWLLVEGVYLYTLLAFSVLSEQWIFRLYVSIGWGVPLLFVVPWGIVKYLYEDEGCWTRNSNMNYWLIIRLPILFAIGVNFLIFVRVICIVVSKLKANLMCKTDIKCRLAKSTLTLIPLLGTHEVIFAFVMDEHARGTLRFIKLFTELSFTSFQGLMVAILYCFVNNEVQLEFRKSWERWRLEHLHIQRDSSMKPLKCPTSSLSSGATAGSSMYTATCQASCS
human GLP-1 receptor (GLP-1R), sequence (P43220 24-463): as above
T1 sequence (P47871 26-477): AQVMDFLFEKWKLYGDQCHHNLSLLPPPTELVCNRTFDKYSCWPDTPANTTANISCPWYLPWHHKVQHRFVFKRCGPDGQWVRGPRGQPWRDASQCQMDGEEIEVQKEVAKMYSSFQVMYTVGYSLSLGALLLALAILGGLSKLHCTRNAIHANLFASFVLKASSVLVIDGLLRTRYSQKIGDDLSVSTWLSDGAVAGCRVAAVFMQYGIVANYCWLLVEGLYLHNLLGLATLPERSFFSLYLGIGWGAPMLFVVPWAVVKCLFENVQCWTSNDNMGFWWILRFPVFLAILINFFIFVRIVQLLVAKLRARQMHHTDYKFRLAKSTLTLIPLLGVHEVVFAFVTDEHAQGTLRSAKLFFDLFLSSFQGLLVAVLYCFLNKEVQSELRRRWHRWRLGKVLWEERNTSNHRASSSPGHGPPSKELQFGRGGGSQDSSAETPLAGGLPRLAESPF

SMILES | Ki (human Gcg receptor) | Ki (human GIP receptor) | EC50 [1] | EC50 [2] | Ki (human GLP-1R)
CC[C@H](C)[C@H](NC(=O)[C@H](CC(C)C)NC(=O)[C@H](Cc1ccc(O)cc1)NC(=O)[C@@H](NC(=O)[C@@H](NC(=O)[C@H](Cc1ccccc1)NC(=O)[C@H](CCC(=O)O)NC(=O)C(C)(C)NC(=O)[C@H](CCC(N)=O)NC(=O)[C@H](C)NC(=O)[C@H](CCCCNC(=O)COCCOCCNC(=O)COCCOCCNC(=O)CC[C@H](NC(=O)CCCCCCCCCCCCCCCCCCC(=O)O)C(=O)O)NC(=O)[C@H](CCC(=O)O)NC(=O)[C@H](CC(=O)O)NC(=O)[C@H](CC(C)C)NC(=O)[C@](C)(CC(C)C)NC(=O)[C@@H](NC(=O)[C@H](CO)NC(=O)[C@H](Cc1ccc(O)cc1)NC(=O)[C@H](CC(=O)O)NC(=O)[C@H](CO)NC(=O)[C@@H](NC(=O)[C@](C)(Cc1ccccc1F)NC(=O)[C@@H](NC(=O)CNC(=O)[C@H](CCC(=O)O)NC(=O)C(C)(C)NC(=O)[C@@H](N)Cc1ccc(O)cc1)[C@@H](C)O)[C@@H](C)O)[C@@H](C)CC)[C@@H](C)CC)C(C)C)C(=O)N[C@@H](CCC(=O)O)C(=O)NCC(=O)NCC(=O)N1CCC[C@H]1C(=O)N[C@@H](CO)C(=O)N[C@@H](CO)C(=O)NCC(=O)N[C@@H](C)C(=O)N1CCC[C@H]1C(=O)N1CCC[C@H]1C(=O)N1CCC[C@H]1C(=O)N[C@@H](CO)C(N)=O [Example 149] (H-Y[Aib]EGT[αMePhe(2-F)]TSDYSI[αMeL]LDEK([AEEA-AEEA-γGlu-C20 diacid])AQ[Aib]EFIVYLIEGGPSSGAPPPS-NH2) | 127 nM | 0.0708 nM | 0.0916 nM | 0.0711 nM | 26.1 nM
CC[C@H](C)[C@H](NC(=O)[C@H](CC(C)C)NC(=O)[C@H](Cc1ccc(O)cc1)NC(=O)[C@H](CO)NC(=O)[C@@H](NC(=O)[C@H](Cc1ccccc1)NC(=O)[C@H](CCC(=O)O)NC(=O)C(C)(C)NC(=O)[C@H](CCC(N)=O)NC(=O)[C@H](C)NC(=O)[C@H](CCCCNC(=O)COCCOCCNC(=O)COCCOCCNC(=O)CC[C@H](NC(=O)CCCCCCCCCCCCCCCCCCC(=O)O)C(=O)O)NC(=O)[C@H](CCC(=O)O)NC(=O)[C@H](CC(=O)O)NC(=O)[C@H](CC(C)C)NC(=O)[C@](C)(CC(C)C)NC(=O)[C@@H](NC(=O)[C@H](CO)NC(=O)[C@H](Cc1ccc(O)cc1)NC(=O)[C@H](CC(=O)O)NC(=O)[C@H](CO)NC(=O)[C@@H](NC(=O)[C@](C)(Cc1ccccc1F)NC(=O)[C@@H](NC(=O)CNC(=O)[C@H](CCC(=O)O)NC(=O)C(C)(C)NC(=O)[C@@H](N)Cc1ccc(O)cc1)[C@@H](C)O)[C@@H](C)O)[C@@H](C)CC)[C@@H](C)CC)C(=O)N[C@@H](CCC(=O)O)C(=O)NCC(=O)NCC(=O)N1CCC[C@H]1C(=O)N[C@@H](CO)C(=O)N[C@@H](CO)C(=O)NCC(=O)N[C@@H](C)C(=O)N1CCC[C@H]1C(=O)N1CCC[C@H]1C(=O)N1CCC[C@H]1C(=O)N[C@@H](CO)C(N)=O [Example 150] (H-Y[Aib]EGT[αMePhe(2-F)]TSDYSI[αMeL]LDEK([AEEA-AEEA-γGlu-C20 diacid])AQ[Aib]EFISYLIEGGPSSGAPPPS-NH2) | 63.2 nM | 0.0649 nM | 0.0575 nM | 0.0511 nM | 30.5 nM
CC[C@H](C)[C@H](NC(=O)[C@H](CC(C)C)NC(=O)[C@H](Cc1ccc(O)cc1)NC(=O)C(C)(C)NC(=O)[C@@H](NC(=O)[C@H](Cc1ccccc1)NC(=O)[C@H](CCC(=O)O)NC(=O)C(C)(C)NC(=O)[C@H](CCC(N)=O)NC(=O)[C@H](C)NC(=O)[C@H](CCCCNC(=O)COCCOCCNC(=O)COCCOCCNC(=O)CC[C@H](NC(=O)CCCCCCCCCCCCCCCCCCC(=O)O)C(=O)O)NC(=O)[C@H](CCC(=O)O)NC(=O)[C@H](CC(=O)O)NC(=O)[C@H](CC(C)C)NC(=O)[C@](C)(CC(C)C)NC(=O)[C@@H](NC(=O)[C@H](CO)NC(=O)[C@H](Cc1ccc(O)cc1)NC(=O)[C@H](CC(=O)O)NC(=O)[C@H](CO)NC(=O)[C@@H](NC(=O)[C@](C)(Cc1ccccc1F)NC(=O)[C@@H](NC(=O)CNC(=O)[C@H](CCC(=O)O)NC(=O)C(C)(C)NC(=O)[C@@H](N)Cc1ccc(O)cc1)[C@@H](C)O)[C@@H](C)O)[C@@H](C)CC)[C@@H](C)CC)C(=O)N[C@@H](CCC(=O)O)C(=O)NCC(=O)NCC(=O)N1CCC[C@H]1C(=O)N[C@@H](CO)C(=O)N[C@@H](CO)C(=O)NCC(=O)N[C@@H](C)C(=O)N1CCC[C@H]1C(=O)N1CCC[C@H]1C(=O)N1CCC[C@H]1C(=O)N[C@@H](CO)C(N)=O [Example 152] (H-Y[Aib]EGT[αMePhe(2-F)]TSDYSI[αMeL]LDEK([AEEA-AEEA-γGlu-C20 diacid])AQ[Aib]EFI[Aib]YLIEGGPSSGAPPPS-NH2) | 93.4 nM | 0.117 nM | 0.0915 nM | 0.0504 nM | 48 nM
CC[C@H](C)[C@H](NC(=O)[C@H](CC(C)C)NC(=O)[C@H](Cc1ccc(O)cc1)NC(=O)[C@H](Cc1c[nH]cn1)NC(=O)[C@@H](NC(=O)[C@H](Cc1ccccc1)NC(=O)[C@H](CCC(=O)O)NC(=O)C(C)(C)NC(=O)[C@H](CCC(N)=O)NC(=O)[C@H](C)NC(=O)[C@H](CCCCNC(=O)COCCOCCNC(=O)COCCOCCNC(=O)CC[C@H](NC(=O)CCCCCCCCCCCCCCCCCCC(=O)O)C(=O)O)NC(=O)[C@H](CCC(=O)O)NC(=O)[C@H](CC(=O)O)NC(=O)[C@H](CC(C)C)NC(=O)[C@](C)(CC(C)C)NC(=O)[C@@H](NC(=O)[C@H](CO)NC(=O)[C@H](Cc1ccc(O)cc1)NC(=O)[C@H](CC(=O)O)NC(=O)[C@H](CO)NC(=O)[C@@H](NC(=O)[C@](C)(Cc1ccccc1F)NC(=O)[C@@H](NC(=O)CNC(=O)[C@H](CCC(=O)O)NC(=O)C(C)(C)NC(=O)[C@@H](N)Cc1ccc(O)cc1)[C@@H](C)O)[C@@H](C)O)[C@@H](C)CC)[C@@H](C)CC)C(=O)N[C@@H](CCC(=O)O)C(=O)NCC(=O)NCC(=O)N1CCC[C@H]1C(=O)N[C@@H](CO)C(=O)N[C@@H](CO)C(=O)NCC(=O)N[C@@H](C)C(=O)N1CCC[C@H]1C(=O)N1CCC[C@H]1C(=O)N1CCC[C@H]1C(=O)N[C@@H](CO)C(N)=O [Example 153] (H-Y[Aib]EGT[αMePhe(2-F)]TSDYSI[αMeL]LDEK([AEEA-AEEA-γGlu-C20 diacid])AQ[Aib]EFIHYLIEGGPSSGAPPPS-NH2; N-terminus assumed) | 43.8 nM | 0.0578 nM | 0.0904 nM | 0.0634 nM | 22.2 nM
CC[C@H](C)[C@H](NC(=O)[C@H](CC(C)C)NC(=O)[C@H](Cc1ccc(O)cc1)NC(=O)[C@H](CCC(=O)O)NC(=O)[C@@H](NC(=O)[C@H](Cc1ccccc1)NC(=O)[C@H](CCC(=O)O)NC(=O)C(C)(C)NC(=O)[C@H](CCC(N)=O)NC(=O)[C@H](C)NC(=O)[C@H](CCCCNC(=O)COCCOCCNC(=O)COCCOCCNC(=O)CC[C@H](NC(=O)CCCCCCCCCCCCCCCCCCC(=O)O)C(=O)O)NC(=O)[C@H](CCC(=O)O)NC(=O)[C@H](CC(=O)O)NC(=O)[C@H](CC(C)C)NC(=O)[C@](C)(CC(C)C)NC(=O)[C@@H](NC(=O)[C@H](CO)NC(=O)[C@H](Cc1c[nH]cn1)NC(=O)[C@H](CC(=O)O)NC(=O)[C@H](CO)NC(=O)[C@@H](NC(=O)[C@](C)(Cc1ccccc1F)NC(=O)[C@@H](NC(=O)CNC(=O)[C@H](CCC(=O)O)NC(=O)C(C)(C)NC(=O)[C@@H](N)Cc1ccc(O)cc1)[C@@H](C)O)[C@@H](C)O)[C@@H](C)CC)[C@@H](C)CC)C(=O)N[C@@H](CCC(=O)O)C(=O)NCC(=O)NCC(=O)N1CCC[C@H]1C(=O)N[C@@H](CO)C(=O)N[C@@H](CO)C(=O)NCC(=O)N[C@@H](C)C(=O)N1CCC[C@H]1C(=O)N1CCC[C@H]1C(=O)N1CCC[C@H]1C(=O)N[C@@H](CO)C(N)=O [Example 154] (H-Y[Aib]EGT[αMePhe(2-F)]TSDHSI[αMeL]LDEK([AEEA-AEEA-γGlu-C20 diacid])AQ[Aib]EFIEYLIEGGPSSGAPPPS-NH2) | 762 nM | 0.061 nM | 0.0393 nM | 0.0266 nM | 5.64 nM
